Test results reported in US20250127759A1, “METHODS AND DOSING REGIMENS COMPRISING A CDK2 INHIBITOR FOR THE TREATMENT OF CANCER” (PFIZER INC., priority 2021, published 2025).

Columns and labels:
[1] = Nonclinical toxicity study, dog; type: in vivo
Procedure: (§1) The selection of the starting dose and regimen was based on the nonclinical toxicology and PK results in accordance with the ICH S9 Guidance. Results from nonclinical toxicity studies indicate the STD10 of PF-07104091 in mouse was 150 mg/kg after BID oral administration. The human equivalent dose for the STD10 in mouse is approximately 729 mg BID (assuming a body weight of 60 kg). Per ICH-S9 guidance, one-tenth of the STD10 can be considered the appropriate starting dose. Given the predicted human t % of approximately 4 hours, the starting dose has been selected to be 75 mg BID. The human AUC0-12 hr of PF-07104091 at the proposed starting oral dose of 75 mg BID is predicted to be ˜6.5% of the observed AUC0-12 hr at the STD10 in mouse (150 mg/kg BID) and ˜80% of the observed AUC0-12 hr at the HNSTD in dog (15 mg/kg BID).

[2] = tested on: T-47D Cells; test: Combination cell proliferation assay, T47D; type: cell-based, human
Procedure: (§2) The combination effects of PF-07104091 with palbociclib were evaluated in a cell proliferation assay with MCF7 and T47D BC cell lines. […] Drug combinations were analyzed using the Dose Equivalence Principle, and the Loewe Volume score. When modeling synergy using the Dose Equivalence Principle, the Loewe Volume score for the combination compounds should be greater than the compound self-cross controls, and the Combination Index score for the combination compounds should be less than compound self-cross controls. […] Furthermore, the isobolograms set to an anti-proliferation threshold at 70% confirm a synergistic response.

[3] = tested on: HCC1428; test: In vivo efficacy, HCC1428 breast cancer model; design: species or system mice; conditions: Day 42, 150 mg/kg BID PO, 150 mg/kg
Procedure: The HCC1428 model was established by implanting passage 4 tumor fragments into recipient mice. To establish the HCC1428 donor mice, tumor cells (5×10^6 cell/mouse with 50% Cultrex® Basement Membrane Matrix) were subcutaneously implanted in female NSG mice. […] All mice received treatment continuously until Day 42. TGI was assessed on Day 42 post first dose.

[4] = tested on: NCI-H526 cells; test: Cell cycle distribution and DNA synthesis, NCI-H526; type: cell-based; conditions: 72-hour treatment with 300 nM
Procedure: (§3) The effect of PF-07104091 on cell cycle distribution and DNA synthesis was determined following 72-hour treatment with 300 nM PF-07104091.

[5] = tested on: MCF7-PalboR cells; test: Cell cycle distribution and DNA synthesis, MCF7-PalboR; type: cell-based; conditions: 72-hour treatment with 300 nM
Procedure: as §3

[6] = tested on: MCF7 Cells; test: Combination cell proliferation assay, MCF7; type: cell-based, human
Procedure: as §2

[7] = tested on: MCF7-PalboR (resistant to palbociclib); test: Proliferation inhibition, MCF7-PalboR; type: cell-based; conditions: 168 h, read-out: Proliferation Inhibition IC50
Procedure: (§4) Anti-proliferative activity was measured in cells treated for 7 days with PF-07104091 in OVCAR3 cells, Rb mutant NCI-H526 SCLC cells, and both HR-positive HER2-negative MCF7 and the subline MCF7-PalboR (resistant to palbociclib).
The MCF7-PalboR cell model is refractory to palbociclib-induced proliferative inhibition at doses up to […], which exceeds the concentration expected to inhibit CDK4 and CDK6.

[8] = tested on: OVCAR3 cells; test: Cell cycle distribution and DNA synthesis, OVCAR3; type: cell-based; conditions: 72-hour treatment with 300 nM
Procedure: as §3

[9] = In vivo efficacy, OVCAR3 ovarian cancer tumor model; conditions: female, mouse, NSG mice, po, BID, read-out: maximum tolerated dose level
Procedure: Female NSG (Jackson Lab) or Nu/nu (CRL) were subcutaneously implanted with tumor cells or fragments (8 mm^3 to 27 mm^3) into the dorsal region. For the MCF7 study, mice were supplemented with estrogen (sc implanted, 17β-estradiol, 0.36 mg, 90-day release pellet, Innovative Research of America, cat no. NE-121).
To establish the OVCAR3 model, tumor cells (5×10^6 cells/mouse with 50% Cultrex® Basement Membrane Matrix) were subcutaneously implanted in female NSG mice. […] PF-07104091 was administered (p.o.) BID (7 hr apart). All mice received treatment continuously for 21 days. TGI was assessed on Day 21 post first dose (or Day 66 post tumor cell implant).

[10] = tested on: NCI-H526 SCLC cells; test: Proliferation inhibition, NCI-H526; type: cell-based; conditions: Homo sapiens, 168 h, treated for 7 days
Procedure: as §4

[11] = Phase 1/2a study, safety profile; type: in vivo
Text: DLTs will be assessed through Cycle 1 (28-day cycle with Day 29 laboratory assessments). For the purpose of dose escalation, the DLT observation period will be during the first cycle (28 days after the start of study treatment) in each participant. Severity of AEs will be graded according to Common Terminology Criteria for Adverse Events (CTCAE) version 5.0.

[12] = Predicted human pharmacokinetics for starting dose
Procedure: as §1

[13] = tested on: phosphorylation of Rb at Ser807/811; test: Modulation of pRb Ser807/811 in OVCAR3 cells; type: cell-based; conditions: Homo sapiens, OVCAR-3; enriched G1/S phase CCNE1-amplified OVCAR3 cells; mean; read-out: Modulation of pRB Serine 807/811 IC50
Procedure: The cellular activity of PF-07104091 was evaluated by measuring phosphorylation of Rb at Ser807/811 following treatment of enriched G1/S phase CCNE1-amplified OVCAR3 ovarian carcinoma cells.

[14] = 75 mg to 500 mg BID, all cohorts, as of data cutoff

In the case of `COCc1cc(C(=O)Nc2cc([C@H]3CC[C@@H](OC(=O)NC(C)C)C3)[nH]n2)n(C)n1` [PF-07104091, (1R,3S)-3-[3-({[3-(methoxymethyl)-1-methyl-1H-pyrazol-5-yl]carbonyl}amino)-1H-pyrazol-5-yl]cyclopentyl propan-2-ylcarbamate], the HNSTD [1] is reported as 15 mg/kg BID, the “Loewe Volume” value [2] is reported as 0.01 and the “Best CI” value ([2]; Best CI Level 70) is reported as 0.95. The TGI % [3] was 95%, the cell cycle arrest [4] was “significant G2/M arrest” and the “S phase (cell cycle distribution)” value ([4]; p=0.057) was “trended towards significance”. The cell cycle arrest [5] was “significant G2/M arrest”, the “S phase (cell cycle distribution)” value ([5]; p≤0.05 versus vehicle) was “Significant S phase reduction” and the “Loewe Volume” value [6] was −0.08. The “Best CI” value ([6]; Best CI Level 70) was 1.04, the IC50 [7] was 680 nM and the cell cycle arrest [8] was “Significant G1 arrest”. For the same compound, the “S phase (cell cycle distribution)” value ([8]; p≤0.05 versus vehicle) was “Significant S phase reduction”, the MTD at 21 days [9] was 175 mg/kg and the IC50 [10] was 136 nM. The “DLTs related to PF-07104091 (number)” value [11, 14] was 15, the “SAEs related to PF-07104091 (number)” value [11, 14] was 21 and the “deaths related to PF-07104091” value [11, 14] was “no deaths”. For the same compound, the “patients with at least one all-causality TEAE” value ([11]; 70 out of 77 patients, across all doses) was 90.9%, the “Grade 5 all-causality TEAEs (number)” value ([11]; Dyspnoea at the 225 mg BID (Part A) dose) was “One” and the “Grade 3 or higher all-causality TEAE: anaemia” value ([11]; across all doses) was 6.5%. For the same compound, the “Grade 3 or higher all-causality TEAE: fatigue” value ([11]; across all doses) was 10.4%, the “Grade 3 or higher all-causality TEAE: hypokalaemia” value ([11]; across all doses) was 5.2% and the “Grade 3 or higher all-causality TEAE: nausea” value ([11]; across all doses) was 7.8%. The “Grade 3 or higher all-causality TEAE: neutrophil count decreased” value ([11]; across all doses) was 23.4%, the “Grade 3 or higher all-causality TEAE: white blood cell count decreased” value ([11]; across all doses) was 14.3% and the “all-causality TEAEs Grade 3 or higher” value ([11]; across all doses) was 49.4%. For the same compound, the “all-causality TEAE: anaemia” value ([11]; across all doses, 77 patients) was 31.2%, the “all-causality TEAE: decreased appetite” value ([11]; across all doses, 77 patients) was 20.8% and the “all-causality TEAE: diarrhoea” value ([11]; across all doses, 77 patients) was 37.7%. The “all-causality TEAE: fatigue” value ([11]; across all doses, 77 patients) was 41.6%, the “all-causality TEAE: nausea” value ([11]; across all doses, 77 patients) was 68.8% and the “all-causality TEAE: neutrophil count decreased” value ([11]; across all doses, 77 patients) was 32.5%. The “all-causality TEAE: vomiting” value ([11]; across all doses, 77 patients) was 37.7%, the “all-causality TEAE: white blood cell count decreased” value ([11]; across all doses, 77 patients) was 23.4% and the “patients who discontinued study treatment due to AEs” value ([11]; all cohorts, as of data cutoff) was 4 patients. The “Grade 4 all-causality TEAE (number)” value ([11]; neutrophil count decreased 500 mg BID (1A) and 75 mg BID (3/1) (1B), platelet count decreased 150 mg BID (1B), neutropenia 75 mg BID (1C)) was “Four”, the “predicted human AUC0-12 hr as % of observed AUC0-12 hr at the HNSTD in dog” value ([12]; human 75 mg BID oral vs dog 15 mg/kg BID) was about 80% and the “predicted human AUC0-12 hr as % of observed AUC0-12 hr at the STD10 in mouse” value ([12]; human 75 mg BID oral vs mouse 150 mg/kg BID) was about 6.5%. The “predicted human t %” value ([12]; human, predicted) was “approximately 4 hours” and the IC50 [13] was 144 nM.
